Laboratory results published in US9340819B2, “Method for detecting the presence of carbapenemase-producing bacteria in a sample” (priority 2011, dated 2016).
≈ marks a conversion by molar mass, not a printed value.

Columns and labels:
E. cloacae [1] = assay: MIC by Etest on Mueller-Hinton agar (Example 1); format: cell-based; details: Enterobacter cloacae
Method: (§1) Prior to performing the method of the invention, susceptibility testings were performed by determining Minimum Inhibitory Concentration (MIC) values by the Etest® (AB bioMérieux; Solna, Sweden) on Mueller-Hinton agar plates at 37° C. and results of susceptibility testing were recorded according to the Clinical and Laboratory Standards Institute (CLSI) guidelines as modified in June 2010 (18). The breakpoints for imipenem are S≦1 μg/ml (susceptibility) and R≧4 μg/ml (resistant). As for those for ertapenem, they are S≦0.25 μg/ml and R≧1 μg/ml (see Tables 1 and 2).

P. mirabilis = assay: MIC of carbapenem by Etest (Example 2); format: cell-based, Proteus mirabilis; details: Plasmid mediated AmpC or chromosomal AmpC + decreased membrane permeability; P. mirabilis ACC-1, n=1
Method: (§2) All strains had previously been characterized for their β-lactamase content at the molecular level. Minimum inhibitory concentration of carbapenem were determined using the Etest® (AB bioMérieux, Solna, Sweden) and results were recorded according to US guidelines (CLSI), as updated in 2011.

P. rettgeri [2] = assay: MIC of carbapenem by Etest (Example 2); format: cell-based, Proteus rettgeri
Method: as §2

E. cloacae [3] = assay: MIC of carbapenem by Etest (Example 2); format: cell-based, Enterobacter cloacae
Method: as §2

E. asburiae = assay: MIC of carbapenem by Etest (Example 2); format: cell-based, Enterobacter asburiae; details: E. asburiae IMI-2, n=1
Method: as §2

S. marcescens = assay: MIC of carbapenem by Etest (Example 2); format: cell-based, Serratia marcescens
Method: as §2

C. freundii = assay: MIC of carbapenem by Etest (Example 2); format: cell-based, Citrobacter freundii
Method: as §2

E. aerogenes = assay: MIC of carbapenem by Etest (Example 2); format: cell-based, Enterobacter aerogenes
Method: as §2

E. coli = assay: MIC by Etest on Mueller-Hinton agar (Example 1); format: cell-based, Escherichia coli; details: for MIC: Escherichia coli
Method: as §1

P. rettgeri [4] = assay: MIC by Etest on Mueller-Hinton agar (Example 1); format: cell-based, Proteus rettgeri; details: Providencia rettgeri; P. rettgeri RAP (9); OXA-181 + OXA-1
Method: as §1

For `C[C@@H](O)[C@H]1C(=O)N2C(C(=O)O)=C(SCCN=CN)C[C@H]12` [IMP, imipenem], the MIC (E. cloacae [1]; E. cloacae (17), ESBL CTX-M-15) was 0.19 µg/mL (≈ 0.635 µM), the MIC (E. cloacae [1]; E. cloacae ARF (25), overexpression of chromosomal cephalosporinase AmpC) was 0.38 µg/mL (≈ 1.27 µM) and the MIC (E. cloacae [1]; E. cloacae BLA, overexpression of chromosomal cephalosporinase AmpC) was 0.38 µg/mL (≈ 1.27 µM). For the same compound, the MIC (E. cloacae [1]; E. cloacae CON (26), overexpression of chromosomal cephalosporinase AmpC) was 0.5 µg/mL (≈ 1.67 µM), the MIC (E. cloacae [1]; E. cloacae IR38, NDM-1 + CTX-M-15) was over 32 µg/mL and the MIC (E. cloacae [1]; E. cloacae TUR (6), OXA-48 + SHV-5) was 0.5 µg/mL. For the same compound, the MIC (E. cloacae [1]; E. cloacae, ESBL VEB-1) was 0.19 µg/mL (≈ 0.635 µM), the MICs range (P. mirabilis) was 0.25 mg/L and the MICs range (P. rettgeri [2]; P. rettgeri NDM-1, n=1) was 3 mg/L. It also gave an MICs range (P. rettgeri [2]; P. rettgeri OXA-181, n=1) of 8 mg/L, an MICs range (E. cloacae [3]; E. cloacae GES-5, n=1) of over 32 mg/L and an MICs range (E. cloacae [3]; E. cloacae IMP-8, n=2) of 0.75 to 1.5 mg/L. It also gave an MICs range (E. cloacae [3]; E. cloacae KPC-2, n=7) of 1 to 24 mg/L, an MICs range (E. cloacae [3]; E. cloacae NDM-1, n=1) of 2 mg/L and an MICs range (E. cloacae [3]; E. cloacae NMC-A, n=1) of 16 mg/L. It also gave an MICs range (E. cloacae [3]; E. cloacae OXA-48, n=3) of 0.5 to 1 mg/L, an MICs range (E. cloacae [3]; ESBLs, E. cloacae CTX-M-15, n=3) of 0.12 mg/L and an MICs range (E. cloacae [3]; ESBLs, E. cloacae VEB-1, n=1) of 0.12 mg/L. The MICs range (E. cloacae [3]; Plasmid mediated AmpC or chromosomal AmpC + decreased membrane permeability, E. cloacae Overexpressed cephalosporinase, n=7) was 0.12 to 16^ mg/L, the MICs range (E. asburiae) was over 32 mg/L and the MICs range (S. marcescens; S. marcescens IMP-11, n=1) was 8 mg/L. It also gave an MICs range (S. marcescens; S. marcescens KPC-2, n=2) of over 32 mg/L, an MICs range (S. marcescens; S. marcescens SME-1, n=1) of 32 mg/L and an MICs range (S. marcescens; S. marcescens SME-2, n=1) of 32 mg/L. For the same compound, the MICs range (S. marcescens; S. marcescens VIM-2, n=1) was over 32 mg/L, the MICs range (C. freundii; C. freundii NDM-1, n=1) was over 32 mg/L and the MICs range (C. freundii; ESBL + decreased membrane permeability, C. freundii TEM-3, n=1) was 1 mg/L. It also gave an MICs range (E. aerogenes; E. aerogenes KPC-2, n=1) of 8 mg/L, an MICs range (E. aerogenes; Plasmid mediated AmpC or chromosomal AmpC + decreased membrane permeability, E. aerogenes Overexpressed cephalosporinase, n=1) of 1 mg/L and an MICs (E. coli; E. coli Ec13 SYD (23), plasmid mediated cephalosporinase CMY-2) of 0.06 µg/mL. It also gave an MICs (E. coli; E. coli J53 (29), wild-type) of 0.06 µg/mL, an MICs (E. coli; E. coli VMC (24), plasmid mediated cephalosporinase CMY-10) of 0.06 µg/mL and an MIC (E. coli; E. coli 271 AUS (12), NDM-1 + CTX-M-15 + TEM-1) of 6 µg/mL. The MIC (E. coli; E. coli 5649 GEN, NDM-1 + OXA-1 + CMY-30 + TEM-1) was 6 µg/mL, the MIC (E. coli; E. coli (18), ESBL CTX-M-14) was 0.06 µg/mL (≈ 0.2 µM) and the MIC (E. coli; E. coli (20), ESBL VEB-1) was 0.06 µg/mL (≈ 0.2 µM). The MIC (E. coli; E. coli ALL, NDM-1 + OXA-1 + OXA-2 + CTX-M-15 + TEM-1) was 4 µg/mL, the MIC (E. coli; E. coli BOU, OXA-48 + CTX-M-15) was 1 µg/mL and the MIC (E. coli; E. coli COL (2), KPC-2) was 4 µg/mL (≈ 13.4 µM). It also gave an MIC (E. coli; E. coli DIH, VIM-19) of 1 µg/mL (≈ 3.34 µM), an MIC (E. coli; E. coli DIN, KPC) of 16 µg/mL (≈ 53.4 µM) and an MIC (E. coli; E. coli FOR, ESBL CTX-M-15) of 0.06 µg/mL (≈ 0.2 µM). For the same compound, the MIC (E. coli; E. coli HAN (7), OXA-48) was 0.5 µg/mL (≈ 1.67 µM), the MIC (E. coli; E. coli MAD (14), VIM-1 + CTX-M-3) was 1.5 µg/mL and the MIC (E. coli; E. coli MAD, IMP-1) was 0.5 µg/mL (≈ 1.67 µM). For the same compound, the MIC (E. coli; E. coli PSP, KPC-2) was 1 µg/mL (≈ 3.34 µM), the MIC (E. coli; E. coli RIC, NDM-1 + OXA-1 + OXA-10 + CMY-16) was 4 µg/mL and the MIC (P. rettgeri [4]) was 1 µg/mL.
